From the supplement of paper PMC10307832

How the values were obtained:
Experiment in all cases: relative viability (nuclei count vs DMSO), 5 days (fraction); higher = more cells survive
IMD-0354 + Crizotinib = compound: O=C(Nc1cc(C(F)(F)F)cc(C(F)(F)F)c1)c1cc(Cl)ccc1O [IMD-0354] + C[C@@H](Oc1cc(-c2cnn(C3CCNCC3)c2)cnc1N)c1c(Cl)ccc(F)c1Cl [Crizotinib] (partner 1 µM)
Summary of the method: (§1)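 Lung cancer cell lines were seeded in 1536-well plates and dosed by pin tool the next day, with either a single drug or a fixed anchor-drug dose combined with five library-drug doses (not always all listed) spaced in √10 steps. Five days later, one step fixed the cells and stained their nuclei (final 0.05% Triton X-100, 1% formaldehyde, 1 ug/ml Hoechst), and nuclei were counted on 4× images. Relative viability is the nuclei count in treated wells divided by the count in vehicle wells, and each value is the median of duplicate plates.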

IMD-0354 + Navitoclax = compound: O=C(Nc1cc(C(F)(F)F)cc(C(F)(F)F)c1)c1cc(Cl)ccc1O [IMD-0354] + CC1(C)CCC(c2ccc(Cl)cc2)=C(CN2CCN(c3ccc(C(=O)NS(=O)(=O)c4ccc(N[C@H](CCN5CCOCC5)CSc5ccccc5)c(S(=O)(=O)C(F)(F)F)c4)cc3)CC2)C1 [Navitoclax] (partner 0.5 µM)
Summary of the method: as §1

CX-5461 + Tozasertib = compound: Cc1cnc(CNC(=O)c2c(=O)c3ccc(N4CCCN(C)CC4)nc3n3c2sc2ccccc23)cn1 [CX-5461] + Cc1cc(Nc2cc(N3CCN(C)CC3)nc(Sc3ccc(NC(=O)C4CC4)cc3)n2)n[nH]1 [Tozasertib] (partner 0.1 µM)
Summary of the method: as §1

IMD-0354 + Pemetrexed = compound: O=C(Nc1cc(C(F)(F)F)cc(C(F)(F)F)c1)c1cc(Cl)ccc1O [IMD-0354] + Nc1nc2[nH]cc(CCc3ccc(C(=O)N[C@@H](CCC(=O)O)C(=O)O)cc3)c2c(=O)[nH]1 [Pemetrexed] (partner 0.2 µM)
Summary of the method: as §1

Cell Line	relative viability (IMD-0354 + Crizotinib; first compound 0.04 µM)	relative viability (IMD-0354 + Crizotinib; first compound 0.1265 µM)	relative viability (IMD-0354 + Crizotinib; first compound 0.4 µM)	relative viability (IMD-0354 + Crizotinib; first compound 1.265 µM)	relative viability (IMD-0354 + Crizotinib; first compound 4 µM)	relative viability (IMD-0354 + Navitoclax; first compound 0.04 µM)	relative viability (IMD-0354 + Navitoclax; first compound 0.1265 µM)	relative viability (IMD-0354 + Navitoclax; first compound 1.265 µM)	relative viability (IMD-0354 + Navitoclax; first compound 4 µM)	relative viability (CX-5461 + Tozasertib; first compound 0.01 µM)	relative viability (CX-5461 + Tozasertib; first compound 0.03162 µM)	relative viability (CX-5461 + Tozasertib; first compound 0.1 µM)	relative viability (CX-5461 + Tozasertib; first compound 1 µM)	relative viability (IMD-0354 + Pemetrexed; first compound 0.04 µM)	relative viability (IMD-0354 + Pemetrexed; first compound 0.1265 µM)	relative viability (IMD-0354 + Pemetrexed; first compound 1.265 µM)	relative viability (IMD-0354 + Pemetrexed; first compound 4 µM)	relative viability (IMD-0354 + Navitoclax; first compound 0.4 µM)	relative viability (CX-5461 + Tozasertib; first compound 0.3162 µM)	relative viability (IMD-0354 + Pemetrexed; first compound 0.4 µM)
LK-2	0.22	0.201	0.28	0.29	0.244	1.15	0.812	0.777	0.247	0.18	0.182	0.162	0.183	0.284	0.31	0.172	0.111	–	–	–
NCI-H2085	0.613	0.753	0.788	0.511	0.315	1.17	1.16	0.62	0.251	0.734	0.849	0.785	0.798	0.954	0.846	0.294	0.276	0.859	0.752	0.644
NCI-H441	0.573	0.713	0.514	0.363	0.202	–	0.473	0.164	0.217	0.515	0.742	0.643	0.362	0.255	0.251	0.177	0.147	0.38	0.678	0.289
LOU-NH91	0.754	0.732	0.538	0.345	0.287	0.734	0.712	0.135	0.165	0.75	0.729	0.648	0.632	0.359	0.472	0.206	0.304	0.396	–	0.25
NCI-H3122	0.298	0.29	0.281	0.202	0.167	1.01	1.09	0.987	0.155	0.389	0.537	0.352	0.262	0.196	0.211	0.281	0.15	0.829	0.314	0.18
NCI-H460	0.892	0.808	0.243	0.142	0.0357	1.21	0.977	0.0709	0.0241	0.523	0.584	0.462	0.0722	0.0638	0.0692	0.0741	0.0289	0.0491	0.227	0.0923
NCI-H1944	0.947	1.07	–	1.04	0.157	0.962	1.13	1.01	0.125	0.259	0.271	0.244	0.248	0.593	0.683	0.146	0.122	–	0.228	0.642
NCI-H1734	0.803	0.685	0.4	0.422	0.244	0.905	0.86	0.412	0.133	0.261	0.293	0.266	0.238	0.449	0.458	0.23	0.129	0.446	0.209	0.369
